From paper PMC6511062, “Preclinical candidate for the treatment of visceral leishmaniasis that acts through proteasome inhibition” (Proceedings of the National Academy of Sciences of the …, 2019)
Values joined by “and” are separate entries in the source; they are usually repeats but may differ in a detail not shown here. Equal values may be shown once.

Experiments:
Leishmania tarentolae = assay: Potency against L. tarentolae; format: cell-based
Source text: The potency of 8 against the nonpathogenic Leishmania spp. […] Apo (3.3 Å) and 8-liganded (2.8 Å) (Fig. 5A) L. tarentolae 20S proteasome structures were obtained using single-particle cryo-EM (SI Appendix, Figs. S11–S15 and Table S9).

[1] = Pharmacokinetics in male Sprague Dawley rats; format: in vivo; conditions: rat
Procedure: Male Sprague Dawley rats (n=3) were dosed either intravenously at a target dose of 3 mg/kg or orally at a target dose of 10, 30, 100 and 300 mg/kg. Following discrete intravenous tail vein dosing from a solution of 5% DMSO/20% kleptose in saline, serial blood samples (~10 µl) were taken via lateral tail vein at 0.01, 0.05, 0.08, 0.25, 0.5, 1, 2, 4, 6, 8 and 24 h post dose and 1/9 diluted with miliQ water, frozen on dry ice, then stored at approximately –20 °C or below until analysis.
Following discrete oral gavage dosing from a suspension of 1% methyl cellulose at target doses of 10, 30, 100 and 300 mg/kg, respectively, serial blood samples (10 µl) were taken via lateral tail vein at 0.08, 0.25, 0.5, 0.75, 1, 2, 4, 6, 8 and 24 h post dose and 1/9 diluted with miliQ water, frozen on dry ice, then stored at approximately –20°C […]
Samples were analyzed for parent compound using a method based on protein precipitation followed by UPLC-MS/MS.
Pharmacokinetic parameters, namely clearance (CL), volume of distribution at steady state (Vss) and bioavailability (F%), were estimated using Phoenix, WinNonLin 6.3.
Data analysis and calculation of pharmacokinetic parameters was performed using Phoenix, WinNonLin Version 6.3.
Following the intravenous administration, the whole blood clearance was calculated by determining the dose administered to each animal and dividing by the AUC0-∞ . The estimate of the volume of distribution at steady state (VSS) was calculated as MRT*CL, where MRT is the mean residence time, calculated by AUMC0-∞ /AUC0-∞.
For both intravenous and oral administration, the systemic exposures were determined by calculating the area under the blood concentration time curve (AUC) from the start of dosing to the last observed quantifiable concentration (AUC0-t) by using the linear up-log down trapezoidal rule. The slope of the terminal elimination phase was estimated by linear regression of the terminal data points (minimum 3 points) from a natural log concentration versus time plot of the data. The half-life (t1/2) of the terminal elimination phase was calculated as t1/2 = 0.693/λ. […]

[2] = target: T1, human purified 26S proteasome (Homo sapiens, UniProt P28074+P49721); assay: Proteasome activity assay, chymotrypsin-like, purified human 26S; format: biochemical
T1 construct: purchased Boston Biochem
Procedure: Proteasome activity assays
Compounds were dispensed into black 384-well assay plates (Greiner) by acoustic dispensing (LabCyte ECHO). For potency determinations, eleven-point, one in three dilution curves were generated, with a top concentration of 100 µM. Three proteasome activities were measured using a commercially available indirect enzyme-based luminescent assay kit (Promega) with Suc-LLVY-aminoluciferin, Z-LRR-aminoluciferin and Z-nLPnLD-aminoluciferin used as substrates for chymotrypsin-like, trypsin-like and caspase-like activities, respectively. In addition to proteasome samples: L. donovani and THP1-enriched proteasomes, commercially available human purified 26S proteasome (Boston Biochem) was also assessed. Proteasome final assay concentration were 0.025 mg/ml for L. donovani and THP1-enriched proteasomes and 1 nM for human purified 26S proteasome. Proteasome solution was added to the plates containing the compounds one hour before adding the proteasome substrate solution.
Substrate solution was then added and after 30 min of incubation luminescent signal was measured in an Envision reader (PerkinElmer).

WP2 uvrA (pKM101) = assay: Ames test, strain WP2 uvrA (pKM101)
Procedure: oxidative metabolism system (S9-mix). The maximum concentration tested and […]
Compound 7a was tested in a bacterial mutation screening assay (Ames test) with Salmonella typhimurium TA1535, TA1537, TA98, TA100 and Escherichia coli WP2uvrA(pKM101) in the presence and absence of an exogenous mammalian […]
The bacterial mutation screening assay was a plate incorporation test carried out as previously described15 and according to current methodology. […]

L. donovani (LV9) = assay: Mouse model of VL (in vivo efficacy in female Balb/C mice); parameters: species or system Leishmania donovani
Procedure: Infected mice were dosed at 3, 10, or 25 mg/kg orally twice a day for 10 consecutive days. Two days after the termination of treatment, mice were euthanized, and the parasite burdens in their livers were determined.
Peripheral blood samples were obtained at 5, 15, 30 min, 1, 2, 4, 6 ,8 and 24 h after intravenous administration and 15, 30, 45 min,1, 2, 4, 6, 8 and 24 h after oral administration. Blood was 1/2 diluted with milliQ water and immediately frozen on dry ice until analysis. Quantification was performed by means of LC-MS/MS (API4000), with a lower limit of quantification of 1 ng/mL. […]
Data analysis and calculation of pharmacokinetic parameters was performed using Phoenix, WinNonLin Version 6.3. […]
For both intravenous and oral administration, the systemic exposures were determined by calculating the area under the blood concentration time curve (AUC) from the start of dosing to the last observed quantifiable concentration (AUC0-t) by using the linear up-log down trapezoidal rule. The slope of the terminal elimination phase was estimated by linear regression of the terminal data points (minimum 3 points) from a natural log concentration versus time plot of the data. The half-life (t1/2) of the terminal elimination phase was calculated as t1/2 = 0.693/λ.
7. In vivo efficacy in female Balb/C mice
To establish infection in mice, sodium stibogluconate-sensitive L. donovani (LV9, WHO designation: MHOM/ET/67/HU3) amastigotes were isolated from the spleen of a heavily infected donor hamster (Janvier, France)7. An inoculum containing 1.0 x 10^8 amastigotes/mL in Dulbecco’s modified eagles medium (high glucose) was prepared […]
and female BalbC mice (Harlan, UK) then infected intravenously via the tail vein with a 0.2 mL bolus (equivalent to ~2.0 x 10^7 amastigotes). Infection was left to establish for […]
daily orally as a suspension in 0.5% hydroxypropylmethylcellulose, 0.4% tween 80 and 0.5% benzyl alcohol. With twice daily regimens, the second daily dose was administered approximately 8 h following the first dose. Dose regimens evaluated were:
1. 50 mg/kg twice daily for 5 days
2. 25 mg/kg, 10 mg/kg and 3 mg/kg twice daily for 10 days
3. 25 mg/kg once daily for 10 days
Miltefosine, as the only oral treatment for visceral leishmaniasis, was used as a […]

[3] = male, Sprague Dawley, whole blood, 3 mg/kg iv bolus
[4] = 10-d treatment orally twice a day

SMILES: O=C(Nc1ccc(F)c(-c2ccn3c(N4CCOCC4)cnc3n2)c1)N1CCCC1 [Compound 8]
- EC50 (Leishmania tarentolae): 0.04 µM
- bioavailability ([1]; male, Sprague Dawley, whole blood, po, 10 mg/kg, SD male rat, 10 mg/kg po, read-out: F (oral bioavailability)): 36%
- clearance [1, 3]: 17 ± 5.2 mL/min/kg
- half-life [1, 3]: 42 ± 8.4 min
- Vd ([1]; male, Sprague Dawley, whole blood, 3 mg/kg iv bolus, read-out: Vss): 1 L/kg
- blood clearance [1]: 17 mL/min per kilogram
- Cl (%LBF) ([1]; 3 mg/kg iv): 22%
- IC50 [2]: 13 ± 0.88 µM
- Mean revertants per plate (WP2 uvrA (pKM101); with S9-mix, dose level 50 per plate): 150.5
- Mean revertants per plate (WP2 uvrA (pKM101); with S9-mix, dose level 150 per plate): 164.5
- Mean revertants per plate (WP2 uvrA (pKM101); with S9-mix, dose level 500 per plate): 143.5
- Mean revertants per plate (WP2 uvrA (pKM101); with S9-mix, dose level 1500 per plate): 139.0
- Mean revertants per plate (WP2 uvrA (pKM101); with S9-mix, dose level 2500 per plate): 130.5
- Mean revertants per plate (WP2 uvrA (pKM101); with S9-mix, dose level 5000 per plate): 133.5
- Mean revertants per plate (WP2 uvrA (pKM101); without S9-mix, dose level 50 per plate): 90.0
- Mean revertants per plate (WP2 uvrA (pKM101); without S9-mix, dose level 150 per plate): 84.5
- Mean revertants per plate (WP2 uvrA (pKM101); without S9-mix, dose level 500 per plate): 80.5
- Mean revertants per plate (WP2 uvrA (pKM101); without S9-mix, dose level 1500 per plate): 87.5
- Mean revertants per plate (WP2 uvrA (pKM101); without S9-mix, dose level 2500 per plate): 91.5
- Mean revertants per plate (WP2 uvrA (pKM101); without S9-mix, dose level 5000 per plate): 82.0
- Reduction in parasite burden (compared to the vehicle control group) (L. donovani (LV9); 3 mg/kg b.i.d. (10 days PO)): 18.4%
- Reduction in parasite burden (compared to the vehicle control group) (L. donovani (LV9); 10 mg/kg b.i.d. (10 days PO)): 56.9%
- Reduction in parasite burden (compared to the vehicle control group) (L. donovani (LV9); 25 mg/kg b.i.d. (10 days PO)): 98.1% and > 95%
- exposure giving >95% parasite burden reduction (L. donovani (LV9); 25 mg/kg twice a day for 10 days): 27 μg/h per mililiter
- Reduction in parasite burden (compared to the vehicle control group) (L. donovani (LV9); 25 mg/kg u.i.d. (10 days PO)): 8.8%
- ED90 (L. donovani (LV9); [4]): 16 mg/kg
- ED99 (L. donovani (LV9); [4]): 30 mg/kg
- ED50 (L. donovani (LV9); Leishmania donovani, po, 240 h, 10-d treatment orally twice a day): 8.9 mg/kg
